BindingDB's records for doi:10.1016/S0960-894X(01)80179-7 (1994)

These compounds were tested against Kappa-type opioid receptor (Cavia porcellus, UniProt P41144) (assay: ChEBML_92409).
Source text: Affinity at K opioid receptor on membranes prepared from guinea pig cerebellum by [3H]- 69593 displacement.

Sequence of Kappa-type opioid receptor (P41144 whole entry): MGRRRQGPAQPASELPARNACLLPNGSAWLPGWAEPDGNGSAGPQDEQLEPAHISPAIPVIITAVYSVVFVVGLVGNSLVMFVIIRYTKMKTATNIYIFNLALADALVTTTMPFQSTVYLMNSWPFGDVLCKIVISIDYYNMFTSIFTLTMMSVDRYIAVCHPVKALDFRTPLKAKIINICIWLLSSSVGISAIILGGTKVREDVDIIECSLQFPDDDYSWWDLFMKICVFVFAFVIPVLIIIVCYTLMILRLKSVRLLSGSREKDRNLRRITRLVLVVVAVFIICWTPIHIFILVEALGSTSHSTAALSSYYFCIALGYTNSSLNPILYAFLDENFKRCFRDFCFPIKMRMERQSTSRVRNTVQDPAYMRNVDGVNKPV

**Q.** For `CN(C(=O)C(c1ccccc1)c1ccccc1)[C@H](CN1CC[C@H](O)C1)c1cccc([N+](=O)[O-])c1`, which Ki is on record?
**A.** The Ki was 20 nM.

**Q.** With `Cc1ccc(C(C(=O)N(C)[C@H](CN2CC[C@H](O)C2)c2ccccc2)c2ccc(C)cc2)cc1` as the compound, how does the Ki read?
**A.** Its Ki is 20 nM.

**Q.** Which Ki does the source give for `CN(C(=O)C1c2ccccc2CCc2ccccc21)[C@H](CN1CC[C@H](O)C1)c1ccccc1` here?
**A.** The Ki was 20 nM.
